Test results: US12042523B2, “Compositions and methods for managing or improving bone disorders, joint disorders, cartilage disorders, or a combination thereof” (Unigen, Inc., priority 2014, dated 2024)

Tested on: MIA-induced osteoarthritis in Sprague-Dawley rats
Assay: Bone histomorphometry (Micro CT) in concurrent MIA-induced osteoarthritis model
Type: in vivo, rat
Method: Male Sprague-Dawley (SD) rats weighing 170˜230 g (6 weeks of age) were purchased and acclimated for one week. […] Anesthetized rats were injected with 0.8 mg of MIA in 50 μl saline solution into the intra-articular pocket at 1 hour after sample treatments. And then samples were administrated daily with gastric tube for 6 weeks. Bone histomorphometry was evaluated on both femur and tibia per knee joint by Micro CT scan using an Inveon™ unit (Siemens Healthcare USA, Inc., Pennsylvania, USA) at Korea Basic science institute, Ochang, Korea. BV/TV as an indicator of trabecular bone volume is the ratio of the trabecular bone volume to the total volume. BMD used as an indicator of osteoporosis and fracture risk. Therefore, we checked those markers whether GM has the efficacy on the osteoporosis. […] Anesthetized rats were injected with 0.8 mg of MIA in 50 μl saline solution into the intra-articular pocket at 1 hour after sample treatments. Samples were administrated daily with gastric tube for 6 weeks. Bone histomorphometry was evaluated on both femur and tibia per knee joint by Micro CT scan using an Inveon™ unit (Siemens Healthcare USA, Inc., Pennsylvania, USA) at Korea Basic science institute, Ochang, Korea. BV/TV as an indicator of trabecular bone volume is the ratio of the trabecular bone volume to the total volume. BMD used as an indicator of osteoporosis and fracture risk.

[1] = MIA 1 hour after sample treatment, daily 6 weeks, Diclofenac 10 mg/kg, GM 500 mg/kg, mean ± SD

**Q.** What does the source list for `O=C(O)Cc1ccccc1Nc1c(Cl)cccc1Cl` [Diclofenac]?
**A.** BMD (mg/cm3) [1]: 982.3 ± 19.44 mg/cm3; BV/TV (%) [1]: 71.89 ± 5.43%; BMD compared with vehicle group (concurrent MIA model): significantly increased; BV/TV compared with vehicle group (concurrent MIA model): tendency to increase
